According to PMC8787434, “Discovery of Novel GR Ligands toward Druggable GR Antagonist Conformations Identified by MD Simulations and Markov State Model Analysis” (Advanced Science, 2021):

Experiments:
[1] = biological target: T1, GR (pCMV-GR11 in Hela cells) (Homo sapiens, UniProt P04150); test: NF-κB-Luc tethered transrepression reporter assay; format: cell-based; conditions: read-out: Cell transrepression / NF-κb (IC50 μM)
T1 construct: gene NR3C1; GR expressed from pCMV-GR11 (Addgene #89105), transiently transfected in HeLa cells
T1 sequence (P04150 1-777): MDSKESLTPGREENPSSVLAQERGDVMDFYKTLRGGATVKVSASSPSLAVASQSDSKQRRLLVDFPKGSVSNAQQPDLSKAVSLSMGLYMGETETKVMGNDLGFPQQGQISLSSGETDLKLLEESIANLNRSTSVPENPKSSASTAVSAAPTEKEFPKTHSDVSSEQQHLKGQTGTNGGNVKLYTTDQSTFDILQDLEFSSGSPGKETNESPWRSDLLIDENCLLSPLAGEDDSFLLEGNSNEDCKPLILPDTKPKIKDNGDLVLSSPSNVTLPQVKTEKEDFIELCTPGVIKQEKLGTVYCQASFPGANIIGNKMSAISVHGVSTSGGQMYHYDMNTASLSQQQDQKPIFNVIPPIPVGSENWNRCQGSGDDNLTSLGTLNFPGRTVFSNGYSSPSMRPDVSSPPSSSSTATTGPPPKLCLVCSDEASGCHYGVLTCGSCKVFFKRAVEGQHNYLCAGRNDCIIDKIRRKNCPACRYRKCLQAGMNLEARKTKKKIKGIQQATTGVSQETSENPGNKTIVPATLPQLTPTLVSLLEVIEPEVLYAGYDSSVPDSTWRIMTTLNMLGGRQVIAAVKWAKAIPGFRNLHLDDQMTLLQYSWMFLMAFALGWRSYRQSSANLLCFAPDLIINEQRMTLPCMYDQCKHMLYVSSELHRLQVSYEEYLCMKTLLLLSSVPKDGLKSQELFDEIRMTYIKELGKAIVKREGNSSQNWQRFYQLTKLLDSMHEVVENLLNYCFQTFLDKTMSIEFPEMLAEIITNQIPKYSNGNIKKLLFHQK
Source text: NF-κB-Luc tethered transrepression reporter assay on GR (pCMV-GR11 in Hela cells)

[2] = biological target: T2, GR (LanthaScreen TR-FRET GR Competitive Binding Assay) (Homo sapiens, UniProt P04150); test: LanthaScreen TR-FRET competitive binding assay
T2 construct: gene NR3C1
T2 sequence (P04150 521-777 limits assumed): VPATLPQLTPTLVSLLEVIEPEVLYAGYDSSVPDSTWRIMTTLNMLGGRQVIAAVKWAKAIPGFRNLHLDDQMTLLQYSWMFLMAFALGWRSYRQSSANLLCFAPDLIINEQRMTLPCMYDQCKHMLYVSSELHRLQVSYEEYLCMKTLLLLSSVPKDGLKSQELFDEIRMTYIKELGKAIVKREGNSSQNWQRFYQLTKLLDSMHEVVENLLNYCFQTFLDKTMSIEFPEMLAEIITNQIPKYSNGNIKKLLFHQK
Source text: LanthaScreen TR-FRET competitive binding assay on GR (LanthaScreen TR-FRET GR Competitive Binding Assay)

SMILES | IC50 [1] [µM] | IC50 [2] [µM]
COc1ccccc1CN1Cc2cc(NS(=O)(=O)c3ccc(F)cc3)ccc2OC(C)C1=O (stereo not drawn) [HP‐26] | 12.2 ± 1.95 | 4.45 ± 0.36
Cc1ccc(S(=O)(=O)N2CCCc3cc(NS(=O)(=O)c4ccc(F)cc4C)ccc32)cc1 [HP‐67] | 2.76 ± 0.18 | 1.57 ± 0.54
CC(=O)N1CCc2cc(S(=O)(=O)C(C)CC(=O)NCC(C)c3ccccc3)ccc21 (stereo not drawn) [HP‐24] | 2.71 ± 0.72 | 2.53 ± 0.12
